Test results reported in patent US9045525B2, “Amyloid β-protein-specific production-inhibiting polypeptide” (THE DOSHISHA, priority 2012, dated 2015).
Peptide text beside a SMILES is read from it.

Experiments:
APP in CHO-K1 cells = biological target: T1, APP in CHO-K1 cells (Cricetulus griseus, UniProt A0A8C2MGG8); assay: Analysis of subcellular distribution in CHO-K1 cells; assay type: cell-based; conditions: Biotin-modified #4 polypeptide, avidin-modified Alexa488; CHO-K1 cells expressing endogenous APP at a low level
T1 construct: CHO-K1 cells expressing endogenous APP protein at a low level; endogenous in cells; host or cells: CHO-K1
T1 sequence (A0A8C2MGG8 18-770): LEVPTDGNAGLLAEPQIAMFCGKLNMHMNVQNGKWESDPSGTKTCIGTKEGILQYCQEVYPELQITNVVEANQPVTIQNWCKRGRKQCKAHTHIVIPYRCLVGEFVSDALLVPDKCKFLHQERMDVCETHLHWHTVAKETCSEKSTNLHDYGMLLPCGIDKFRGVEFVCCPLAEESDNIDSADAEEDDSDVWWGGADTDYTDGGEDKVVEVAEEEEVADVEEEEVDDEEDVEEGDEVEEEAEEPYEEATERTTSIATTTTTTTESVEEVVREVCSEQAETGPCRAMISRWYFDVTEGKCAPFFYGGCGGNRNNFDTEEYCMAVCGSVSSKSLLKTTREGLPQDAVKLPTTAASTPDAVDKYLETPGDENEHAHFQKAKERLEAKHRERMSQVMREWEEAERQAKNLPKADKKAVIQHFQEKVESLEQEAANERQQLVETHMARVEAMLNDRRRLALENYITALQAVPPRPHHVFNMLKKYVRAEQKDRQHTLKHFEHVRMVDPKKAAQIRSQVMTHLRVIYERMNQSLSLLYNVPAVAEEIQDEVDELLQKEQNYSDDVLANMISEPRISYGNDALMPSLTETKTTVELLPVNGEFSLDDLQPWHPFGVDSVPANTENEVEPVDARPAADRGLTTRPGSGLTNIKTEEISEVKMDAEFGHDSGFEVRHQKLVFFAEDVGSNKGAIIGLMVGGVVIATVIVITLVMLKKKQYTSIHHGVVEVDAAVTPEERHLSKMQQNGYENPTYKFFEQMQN
Description: Biotin-modified #4 polypeptide was prepared using a known method. This polypeptide was allowed to react with CHO-K1 cells and the 7WD10 cells mentioned above, and the resulting cells were immobilized, and then treated with Triton X-100. Thereafter, avidin-modified Alexa488 was reacted with the above. As the negative control experiment, an experiment was conducted reacting avidin-modified Alexa 488 in place of Biotin-modified #4 polypeptide.

[1] = Intraperitoneal administration of FITC-modified polypeptide, localization around the hippocampus; assay type: in vivo; conditions: FITC-modified #4 polypeptide, 150 mg/kg intraperitoneally, three consecutive days, mouse
Description: Subsequently, FITC-modified #4 polypeptide prepared by using a known method was intraperitoneally administered to a mouse. The dose was 150 mg/kg, and the administration was conducted for three consecutive days. Four days after, the mice were euthanized to prepare test pieces of tissue around the hippocampus. As the negative control experiment, DMSO was administered in place of FITC-modified #4 polypeptide.
In the figure, “CPLV” indicates the area called the “choroid plex” for producing cerebrospinal fluid.

Neuro 2A cells (N2A) = assay: Mouse Aβ production inhibition experiment, Neuro 2A cells; assay type: cell-based; conditions: polypeptide 20 μM, Neuro2A cells expressing mouse-type APP, anti-mouse Aβ antibody Western blotting
Description: #1, #2, and #4 polypeptides were added to the culture solutions of CHO-K1 cells and Neuro 2A cells (N2A) in such a manner that the final concentration was 20 μM. As a control, L685458 (i.e., a γ-secretase inhibitor) and DMSO were added thereto in such a manner that the final concentration was 20 μM.
Thereafter, Aβ contained in the cell culture medium was identified by using a Western-blotting method with an antibody (anti-mouse Aβ antibody) that recognizes Aβ. […] In the figure, L indicates L685458, which is a γ-secretase inhibitor (final concentration of 1 μM).

[2] = system: Aβ protein in hippocampus; assay: Aβ protein production inhibition after direct administration in mouse hippocampus; assay type: in vivo; conditions: C57BL/6 mouse, 0.2 ng/g directly in right-side hippocampus, three hours after administration, relative to rev#4
Description: A #4 polypeptide solution using 50% DMSO as a solvent was administered to a C57BL/6 mouse in an amount of 0.2 ng/g. The solution was directly administered in the right-side hippocampus of the mouse. Three hours after administration, the right-side hippocampus was extracted, and the amount of Aβ protein extracted by TBS and 6M guanidine hydrochloride was measured by using the sandwich ELISA method (product name: human/rat β amyloid (40) ELISA Kit Wako for immunochemistry, product No. 294-62501; product name: human/rat β amyloid (42) ELISA Kit Wako for immunochemistry, product No. 290-62501: both manufactured by Wako Pure Chemical Industries, Ltd.). As a negative control experiment, a polypeptide (rev#4: SEQ ID NO: 19) having the amino acid sequence in inverse order of #4 polypeptide was administered to the left-side hippocampus of the same mouse.
FIG. 9 is a graph showing the Aβ protein extracted from the mouse was quantified. The vertical axis indicates the relative value taking the result of negative control experiment in which rev#4 polypeptide was administered as 100%.

CC[C@H](C)[C@H](NC(=O)[C@H](CC(=O)O)NC(=O)[C@@H](NC(=O)[C@@H](NC(=O)[C@H](CS)NC(=O)[C@H](Cc1ccc(O)cc1)NC(=O)[C@H](CS)NC(=O)[C@H](CC(=O)O)NC(=O)[C@H](CS)NC(=O)[C@@H](NC(=O)[C@@H](NC(=O)[C@H](CC(C)C)NC(=O)[C@H](Cc1c[nH]cn1)NC(=O)[C@H](CCSC)NC(C)=O)C(C)C)[C@@H](C)CC)[C@@H](C)O)[C@@H](C)O)C(=O)N[C@@H](CS)C(=O)N[C@@H](Cc1ccc(O)cc1)C(=O)N[C@@H](CS)C(=O)N[C@@H](Cc1ccc(O)cc1)C(=O)N[C@@H](CO)C(=O)N[C@@H](CS)C(=O)N[C@H](C(=O)N1CCC[C@H]1C(=O)N[C@@H](CC(N)=O)C(N)=O)[C@@H](C)O [#4] (Ac-MHLVICDCYCTTDICYCYSCTPN-NH2)
binding to APP in cells (APP in CHO-K1 cells): binded to APP in the cells | presence of polypeptide in CA1 region (fluorescent microscopy) [1]: a portion dyed green indicating the presence of #4 polypeptide was confirmed | presence of polypeptide in choroid plex (CPLV) [1]: a portion dyed green indicating the presence of #4 polypeptide was confirmed in the blood vessel | presence of polypeptide in dentate gyrus (DG) [1]: a portion dyed green indicating the presence of #4 polypeptide was also confirmed | production of Aβ in the culture medium (Neuro 2A cells (N2A)): the production of Aβ in the culture medium was reduced | Aβ protein production in hippocampus (sandwich ELISA) [2]: remarkably inhibited Aβ protein production
